Test results published in patent US12295940B2, “Viral inhibitors, the synthesis thereof, and intermediates thereto” (Takeda Pharmaceutical Company Limited, priority 2022, dated 2025).

Assays:
[1] = type: physicochemical; details: pH 4
From the text: A preliminary test was done to determine the lower pH to be tested: Three samples of the biphasic mixture during 1st NaCl-wash was taken and adjusted separately to pH 4, 5, and 6. These samples were refluxed overnight and sampled for HPLC purity at different time points. […] It was observed that at lower pH values, some white precipitate occurred. This precipitate dissolved upon raising the pH with NaOH. It was assumed that this was the hydrochloride salt of maribavir. Upon further review, at pH<5.5, the precipitate occurred. Therefore, the lowest pH tested was 6. The distilled reaction mixtures were subjected to crystallization on a 400 ml Easymax scale.

[2] = Stability data of process systems (Example 3-23); type: physicochemical; details: 7 days
Experimental: The following stability data was generated and referenced in one or more of the prior examples. Stability of the following systems were studied and found to be stable for at least 7 days: Stability of Compound 3 HCl in MeOH/TBME at 40° C.; Stability of reaction mixture at 40° C. (amount of maribavir); Stability of biphasic mixture at 40° C. (before extraction); Stability of biphasic mixture at 40° C. (during last NaCl washing); Stability of reaction mixture after final distillation step at Stability of biphasic mixture at 75° C.; Stability of reaction mixture after final distillation step at 90° C.; Stability of crystallization mixture after dosage of 2nd portion of toluene at reflux; Stability of crystallization at 20° C.; Stability of mixture during slurry wash at 20-25° C.; Stability of maribavir in the mother liquor at 20-25° C.; Stability of wet cake at 70° C.; and Stability of dry cake at 70° C.

[3] = type: physicochemical
Experimental: The following solubility data was generated and referenced in one or more of the prior examples. A mixture of approx. 2 g of maribavir and 5 mL solvent was stirred overnight in sealed vials at different temperatures. The clear supernatant solutions were sampled for […] assay. All examples were done in triplicates. Table 3-5. Maribavir solubilities in iPrOAc and toluene.

- Stability by HPLC purity (in words) [1]: perfect stability
- Stability (time found stable) [2]: at least 7 days
- Solubility in iPrOAc (in words) [3]: good solubility
SMILES: CC(C)Nc1nc2cc(Cl)c(Cl)cc2n1[C@H]1O[C@@H](CO)[C@H](O)[C@@H]1O [Maribavir, (2S,3S,4R,5S)-2-(5,6-dichloro-2-(isopropylamino)-1H-benzo[d]imidazol-1-yl)-5-(hydroxymethyl)tetrahydrofuran-3,4-diol]
